# Test results reported in patent US9175036B2, “Antimicrobial water treatment membranes and production thereof” (BEN-GURION UNVERSITY OF THE NEGEV RESEARCH AND DEVELOPMENT …, priority 2009, dated 2015).
# Like-named read-outs stand apart in the source and are kept apart here. Square brackets hold non-standard residues; d marks the D form. Peptide text beside a SMILES is read from it. Ahx = NCCCCCC(=O)O
# System: Enterobacter
# Type: cell-based
# Description: The IC50 is determined by an essay, suitable for the specific film-forming microorganism in question. For example, in the present invention, the Enterobacter assay, which is described in detail in the methods section below, was used to determine the antimicrobial activities of the tested peptides.
# Quantitative Biofilm Growth Inhibition Assay in a 96-Wells Microtiter Plate:
# Enterobacter culture (50 ml) was grown in tryptic soy broth media (TBS; prepared according to manufacturer instructions) overnight at 25° C. On the next day the turbidity of the culture was measured at 600 nm (Biomate 5 UV-Vis spectrophotometer, Thermo Fisher Scientific, Waltham, Mass.) and, if necessary, TSB was added to dilute the culture until the OD was 1.
# Then 96 wells polystyrene microtiter plates (flat bottom, transparent, Becton Dickinson, Franklin Lakes, New-Jersey) were filled as following: Negative control wells (without bacteria) were filled with 125 μl TSB media and 25 μl of DDW:PBS1:1 buffer solution; Positive control wells (without peptide solution) were filled with 110 μl TSB media, 25 μl of DDW:PBS1:1 buffer solution and 15 μl of Enterobacter culture solution; Wells that contained AMPs at different concentrations were filled with 110 μl TSB media, 25 μl of peptide solution and 15 μl of Enterobacter culture solution.
# The plates were incubated at 25° C. overnight. On the next day the plates were gently rinsed 5 times with distilled water to remove the planktonic bacteria and then dried at room temperature for 10 minutes. Then the biofilm on the walls of the wells was dyed by adding 200 μl, of 3% crystal violet (CV) to the wells. After 15 minutes at room temperature, the plates were gently rinsed 5 times with distilled water to remove excess dye and dried at room temperature for 10 minutes (Djordjevic, Wiedmann & McLandsborough 2002). The dry plates were filled with 200 μl ethanol, covered and gently agitated (Duomax 1030 rocking platform shaker, Heidolph, Kelheim, Germany) for 1 hour. The absorbance of extracted color was measured in a plate reading spectrophotometer (Infinite M200, Tecan, Mannedorf, Switzerland) at 595 nm.
# The effect of linking the arm to a peptide, on the antimicrobial activity of the peptides was assessed by measuring the peptide activity in 96-microtitter plates in solution and comparing to activities of the normal peptides. Experiments were performed in water and in 3% NaCl solution. Table 6 presents the antimicrobial activity (IC50) of peptide-arm systems, in water and in 3% NaCl solution. Values were extracted from dose-response curves.
# Different concentration solutions of peptides, bought or prepared as detailed in the methods section above, were prepared by diluting a stock solution with 1% ACN. Stock solution was prepared by dissolving water soluble peptides in DDW:PBS1:1. PBS (pH=7.4) was prepared by adding to 800 ml DDW, 8 grams NaCl, 0.2 grams KCl, 1.44 grams Na2HPO4 and 0.2 grams KH2PO4.
# To evaluate whether attachment of a tether to the AMPs has an effect on the inhibitory potency, a PEGylated peptide (HS-PEG-D-Modelin-1) was prepared, and its inhibitory potency compared to that of the ‘normal’ peptide All-D-Modelin-1. Peptides were diluted in 2-fold serial dilutions, and the antibacterial activity of the peptides was determined in sterile 96-multititter plates.
# [1] = peptide in solution, water, 96-microtitter plates, values extracted from dose-response curves
Compound,IC50 Normal conditions [µg/mL],IC50 in 3% Aqueous NaCl [µg/mL],further results
CC(C)C[C@H](NC(=O)[C@H](CCCCN)NC(=O)[C@H](Cc1ccccc1)NC(=O)[C@H](CC(C)C)NC(=O)[C@H](CC(C)C)NC(=O)CNC(=O)[C@H](CCCCN)NC(=O)[C@H](CC(C)C)NC(=O)[C@H](CCCCN)NC(=O)[C@@H]1CCCN1C(=O)[C@H](CC(C)C)NC(=O)[C@H](CC(C)C)NC(=O)[C@H](CC(C)C)NC(=O)[C@H](CCCCN)NC(=O)[C@H](CC(C)C)NC(=O)[C@H](CC(C)C)NC(=O)[C@H](CCCCN)NC(=O)[C@H](Cc1ccc(O)cc1)NC(=O)CNC(=O)CNC(=O)CNC(=O)CNC(=O)[C@@H](N)CS)C(N)=O [CG4-L^6P^9G^13F^16] (H-CGGGGYKLLKLLLPKLKGLLFKL-NH2; N-terminus assumed),110,>300,
"N=C(N)NCCC[C@H](NC(=O)CCCCCNC(=O)[C@@H](N)CS)C(=O)N[C@@H](CCCNC(=N)N)C(=O)N[C@@H](Cc1c[nH]c2ccccc12)C(=O)N[C@@H](Cc1c[nH]c2ccccc12)C(=O)N[C@@H](CCCNC(=N)N)C(=O)N[C@@H](Cc1ccccc1)C(N)=O [CX-Hexapeptide-4, CXRRWWRF-NH2] (H-C[Ahx]RRWWRF-NH2; N-terminus assumed)",80,>300,
"CC(C)C[C@H](NC(=O)[C@H](CCCCN)NC(=O)CCCCCNC(=O)[C@@H](N)CS)C(=O)N[C@@H](Cc1c[nH]c2ccccc12)C(=O)N[C@@H](CCCCN)C(=O)N[C@@H](CCCCN)C(=O)N[C@@H](Cc1c[nH]c2ccccc12)C(=O)N[C@@H](C)C(=O)N[C@@H](CCCCN)C(=O)N[C@@H](CCCCN)C(=O)N[C@@H](Cc1c[nH]c2ccccc12)C(=O)N[C@@H](CC(C)C)C(=O)N[C@@H](CCCCN)C(=O)N[C@@H](CC(C)C)C(=O)N[C@@H](Cc1c[nH]c2ccccc12)C(=O)N[C@@H](CCCCN)C(=O)N[C@@H](C)C(=O)N[C@@H](Cc1c[nH]c2ccccc12)C(=O)O [CX-Modelin-1, CXKLWKKWAKKWLKLWKAW] (H-C[Ahx]KLWKKWAKKWLKLWKAW-OH; N-terminus assumed)",60,,
"CC[C@H](C)[C@H](NC(=O)[C@H](CCCNC(=N)N)NC(=O)CNC(=O)[C@H](CC(C)C)NC(=O)[C@H](Cc1ccccc1)NC(=O)[C@H](CCCCN)NC(=O)[C@H](CO)NC(=O)[C@H](Cc1ccccc1)NC(=O)[C@H](Cc1c[nH]c2ccccc12)NC(=O)[C@H](CCC(N)=O)NC(=O)[C@@H](NC(=O)[C@H](Cc1ccccc1)NC(=O)CCCCCNC(=O)[C@@H](N)CS)C(C)C)C(=O)N[C@@H](CC(C)C)C(N)=O [CX-Temporin-L, CXFVQWFSKFLGRIL-NH2] (H-C[Ahx]FVQWFSKFLGRIL-NH2)",,,IC50 Normal conditions [1]: >300 µg/mL
"CC(C)C[C@@H](NC(=O)[C@H](N)CCCCN)C(=O)N[C@H](Cc1c[nH]c2ccccc12)C(=O)N[C@H](CCCCN)C(=O)N[C@H](CCCCN)C(=O)N[C@H](Cc1c[nH]c2ccccc12)C(=O)N[C@H](C)C(=O)N[C@H](CCCCN)C(=O)N[C@H](CCCCN)C(=O)N[C@H](Cc1c[nH]c2ccccc12)C(=O)N[C@H](CC(C)C)C(=O)N[C@H](CCCCN)C(=O)N[C@H](CC(C)C)C(=O)N[C@H](Cc1c[nH]c2ccccc12)C(=O)N[C@H](CCCCN)C(=O)N[C@H](C)C(=O)N[C@H](Cc1c[nH]c2ccccc12)C(=O)O [D-Modelin-1, KLWKKWAKKWLKLWKAW]",,,"IC50 (repeated assay, D-Modelin-1 (crude) and HS-PEG-D-Modelin-1 prepared in the same synthesis): 3 µg/mL"
"N=C(N)NCCC[C@H](NC(=O)[C@H](Cc1c[nH]c2ccccc12)NC(=O)[C@H](Cc1c[nH]c2ccccc12)NC(=O)[C@H](CCCNC(=N)N)NC(=O)[C@@H](N)CCCNC(=N)N)C(=O)N[C@@H](Cc1ccccc1)C(N)=O [Hexapeptide-4, RRWWRF-NH2, reference compound] (H-RRWWRF-NH2; N-terminus assumed)",60,100,
"CC(C)C[C@H](NC(=O)[C@H](CCCCN)NC(=O)[C@H](Cc1ccccc1)NC(=O)[C@H](CC(C)C)NC(=O)[C@H](CC(C)C)NC(=O)CNC(=O)[C@H](CCCCN)NC(=O)[C@H](CC(C)C)NC(=O)[C@H](CCCCN)NC(=O)[C@@H]1CCCN1C(=O)[C@H](CC(C)C)NC(=O)[C@H](CC(C)C)NC(=O)[C@H](CC(C)C)NC(=O)[C@H](CCCCN)NC(=O)[C@H](CC(C)C)NC(=O)[C@H](CC(C)C)NC(=O)[C@H](CCCCN)NC(=O)[C@@H](N)Cc1ccc(O)cc1)C(N)=O [L^6P^9G^13F^16, reference compound] (H-YKLLKLLLPKLKGLLFKL-NH2; N-terminus and C-terminus assumed)",40,300,
"CC(C)C[C@H](NC(=O)[C@H](CCCCN)NC(=O)[C@H](CC(C)C)NC(=O)[C@H](Cc1c[nH]c2ccccc12)NC(=O)[C@H](CCCCN)NC(=O)[C@H](CCCCN)NC(=O)[C@H](C)NC(=O)[C@H](Cc1c[nH]c2ccccc12)NC(=O)[C@H](CCCCN)NC(=O)[C@H](CCCCN)NC(=O)[C@H](Cc1c[nH]c2ccccc12)NC(=O)[C@H](CC(C)C)NC(=O)[C@@H](N)CCCCN)C(=O)N[C@@H](Cc1c[nH]c2ccccc12)C(=O)N[C@@H](CCCCN)C(=O)N[C@@H](C)C(=O)N[C@@H](Cc1c[nH]c2ccccc12)C(=O)O [Modelin-1, KLWKKWAKKWLKLWKAW, reference compound]",,,"IC50 in 3% Aqueous NaCl (peptide in solution, 3% NaCl solution, 96-microtitter plates, values extracted from dose-response curves): 100 µg/mL; IC50 Normal conditions [1]: 20 µg/mL"
CC(C)C[C@H](NC(=O)[C@H](CCCCN)NC(=O)CNC(=O)CNC(=O)CNC(=O)CN)C(=O)N[C@@H](Cc1c[nH]c2ccccc12)C(=O)N[C@@H](CCCCN)C(=O)N[C@@H](CCCCN)C(=O)N[C@@H](Cc1c[nH]c2ccccc12)C(=O)N[C@@H](C)C(=O)N[C@@H](CCCCN)C(=O)N[C@@H](CCCCN)C(=O)N[C@@H](Cc1c[nH]c2ccccc12)C(=O)N[C@@H](CC(C)C)C(=O)N[C@@H](CCCCN)C(=O)N[C@@H](CC(C)C)C(=O)N[C@@H](Cc1c[nH]c2ccccc12)C(=O)N[C@@H](CCCCN)C(=O)N[C@@H](C)C(=O)N[C@@H](Cc1c[nH]c2ccccc12)C(=O)O [Peptide G4-Modelin-1] (H-GGGGKLWKKWAKKWLKLWKAW-OH; N-terminus and C-terminus assumed),70,120,
